The source of these data is patent publication US20210317102A1, “INHIBITORS OF INTEGRATED STRESS RESPONSE PATHWAY” (Praxis Biotech LLC, priority 2019, published 2021).

In assay [1] the test system is ATF4 expression, HEK293T cells carrying the ATF4 luciferase reporter. Put plainly: ATF4 expression inhibition assay (ATF4 luciferase reporter). The class given is cell-based. To be noted: Homo sapiens, HEK-293T, 100 nM thapsigargin, 3 hours. An outline of the steps: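 Stable HEK293T line expressing firefly luciferase behind the human full-length ATF4 5′UTR; cells stressed with 100 nM thapsigargin alongside compound (1 nM–10 μM) for 3 h at 37 °C. Luminescence normalized to Tg alone (0% inhibition) and untreated cells (100% inhibition) to give % ATF4 inhibition.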
Background: Reporter assays use an easily measured gene product as a stand-in for the process of interest.

A further assay has as its system L-Wnt-3A cells. Put plainly: Secretion of Wnt-3A by L-Wnt-3A cells. The class given is cell-based. To be noted: 1 µM compound 10, DMEM with reduced FBS (1%), 24 hours, vs vehicle. The procedure: L-Wnt-3A cells (ATCC® CRL-2647™) were maintained at 37° C. and 5% CO2 in DMEM supplemented with 10% fetal bovine serum (FBS), 2 mM L-glutamine, 100 U/ml penicillin, and 100 μg/ml streptomycin. After reaching 80% of confluence, cells were detached and seeded on 6-well plates in complete media, allowed to recover for 48 h. Cells were then washed three times with PBS and treated with vehicle (1% DMSO) or 1 µM compound 10 in DMEM with reduced FBS (1%) for 24 hours. Then, culture media with cells were recovered in microtubes and centrifuged at 500 g for 5 minutes. Supernatants (SN) which contain secreted proteins were extracted and protease and phosphatase inhibitors (Roche) were added to each sample. SN were centrifuged at 2,000 g for 10 min to discard any cellular debris and 900 μL SN were transferred to empty microtubes with […] methanol by mixing well. 200 μL of chloroform was added to the mix and then samples were centrifuged at 14,000 g for 2 minutes. […] Quantification of protein bands was done by densitometry using ImageJ software.
Percent of secreted Wnt-3A by L-Wnt3A cells treated with vehicle or compound 10 from two independent experiments is shown in FIG. 5. Percentage was calculated as the percent relative to […] secretion levels from L-Wnt-3A cells treated with vehicle which correspond to 100%.

Structures are written as SMILES.

The term IC50 denotes the midpoint of a concentration-inhibition curve. The compound `O=C(COc1ccc(Cl)c(F)c1)N[C@H]1CC[C@H](CNC(=O)c2ccc3cc(Cl)ccc3n2)CC1` [Compound 10, trans-6-chloro-N-((4-(2-(4-chloro-3-fluorophenoxy)acetamido)cyclohexyl)methyl)quinoline-2-carboxamide] returned an IC50 in assay [1] of 106 nM. In the assay with L-Wnt-3A cells, the “Secretion of Wnt-3A” value is listed as “increased the secretion of a particular protein (Wnt-3A)”.
